Results published in paper PMC6813218 (Frontiers in Molecular Neuroscience, 2019).

Tests used:
CB1R [1] = test system: CB1R; design: method as in Laprairie et al., 2019; conditions: ref Laprairie et al., 2019; cited from earlier work
C57BL/6J mice [2] = assay: Tetrad: catalepsy, ring holding assay; assay type: in vivo, mouse; conditions: for catalepsy: single agent i.p. (CP55940 0.1 mg/kg; indomethacin 2 mg/kg), 1 and 4 h
Protocol: (§1) Seven-week old, male, C57BL/6J mice (mean weight 25.2 ± 0.5 g) were purchased from The Jackson Laboratory (Bar Harbor, ME, United States). Animals were group housed (5 per cage) with ad libitum access to food, water, and environmental enrichment and maintained on a 12 h light/dark cycle. […] All protocols were in accordance with the guidelines detailed by the Canadian Council on Animal Care (CCAC; Ottawa ON: Vol. 1, 2nd Ed., 1993; Vol. 2, 1984), approved by the Carleton Animal Care Committee at Dalhousie University. In keeping with the ARRIVE guidelines, power analyses were conducted to determine the minimum number of animals required for the study and animals were purchased – rather than bred – to limit animal waste, and all assessments of animal behavior were made by individuals blinded to treatment group ([Kilkenny et al., 2010]).
Catalepsy was assessed in the ring holding assay immediately prior to injection and 1 and 4 h following injection. The mice were placed such that their forepaws clasped a 5 mm ring positioned 5 cm above the surface of the testing space. The length of time the ring was held was recorded (s). The trial was ended if the mouse turned its head or body, or made three consecutive escape attempts.

C57BL/6J mice [3] = assay: Tetrad: locomotion, open field test; assay type: in vivo, mouse
Protocol: as §1
Locomotion was assessed in the open field test immediately prior to injection and 1 and 4 h following injection. Mice were placed in an open space 90 cm × 60 cm and total distance was recorded for 5 min.

C57BL/6J mice [4] = assay: Tetrad: tail flick latency (anti-nociception); assay type: in vivo, mouse; conditions: for tail flick latency compared to vehicle: single agent i.p. (CP55940 0.1 mg/kg; indomethacin 2 mg/kg), 0.5, 1 and 4 h
Protocol: as §1
Anti-nociception was determined by assessing tail flick latency immediately prior to injection and 0.5, 1, and 4 h following injection. Mice were restrained with their tails placed ∼1 cm into water held at 52°C and the time until the tail was removed was recorded as tail flick latency (s). Observations were ended at 10 s.

C57BL/6J mice [5] = assay: Tetrad: internal body temperature; assay type: in vivo, mouse; conditions: 0.5 and 1 h; for body temperature compared to vehicle: single agent i.p. (CP55940 0.1 mg/kg; indomethacin 2 mg/kg)
Protocol: as §1
Internal body temperature was measured via rectal thermometer immediately prior to injection and 0.5, 1, and 4 h following injection.

CB1R [6] = test system: CB1R; design: method as in Pamplona et al., 2012; conditions: PAM of ligand binding and cAMP inhibition at CB1R; ref Pamplona et al., 2012; cited from earlier work
hCB1R [7] = molecular target: T1, hCB1R (Homo sapiens, UniProt P21554); assay type: binding
Protocol: The assay was terminated by rapid filtration onto GF/B filters pre-soaked in assay buffer using a Brandel cell harvester. The filters were washed six times with the ice-cold buffer before being dried in a heated cabinet. Filters were placed in vials to which 3 mL Ultima Gold scintillation fluid was added. The radioactivity in each vial was then counted for 3 min in a Tri-Carb liquid scintillation counter.

hCB1R [8] = molecular target: T1, hCB1R; assay type: cell-based; conditions: indomethacin alone
Protocol: (§2) Cells were fixed for 10 min at room temperature with 4% paraformaldehyde and washed three times with 0.1 M PBS for 5 min each. Cells were incubated with blocking solution (PBS, 20% Odyssey blocking buffer, and 0.1% TritonX-100) for 1 h at room temperature. […] Cells were washed three times with PBS for 5 min each. Cells were incubated in IR^CW700dye or IR^CW800dye (1:500; Rockland Immunochemicals) and washed three times with PBS for 5 min each. Analyses were conducted using the Odyssey Imaging system and software (version 3.0; Li-Cor).

hCB1R [9] = molecular target: T1, hCB1R; assay type: cell-based; conditions: indomethacin alone; remark: listed apart in the source
Protocol: (§3) Briefly, 48 h post-transfection cells were washed twice with cold PBS and suspended in BRET buffer [PBS supplemented with glucose (1 mg/mL), benzamidine (10 mg/mL), leupeptin (5 mg/mL), and a trypsin inhibitor (5 mg/mL)]. Cells were treated with compounds as indicated (PerkinElmer) and coelenterazine 400a substrate (50 μM; Biotium, Hayward, CA, United States) was added.

ICR mice = test system: ICR mice; design: method as in Wiley et al. (2006); conditions: indomethacin 10 or 30 mg/kg, AEA 30 mg/kg, ref Wiley et al. (2006); cited from earlier work
hCB2R [10] = molecular target: T2, hCB2R (Homo sapiens, UniProt P34972); assay: cAMP luciferase reporter assay, HEK-CRE hCB2R-GFP2; assay type: cell-based; design: expressed in transfected cells; HEK-CRE reporter cells for the cAMP luciferase assay; conditions: indomethacin alone
Protocol: (§4) HEK-CRE cells were transfected with CB1R-GFP^2 or CB2R-GFP^2. Forty-eight hours post-transfection cells were washed twice with cold PBS and suspended in BRET buffer. Cells were dispensed into 96-well plates (10,000 cells/well) and treated with 10 μM forskolin and ligands (PerkinElmer). Media was aspirated from cells and cells were lysed with passive lysis buffer for 20 min at room temperature (Promega, Oakville, ON, Canada).

hCB2R [11] = molecular target: T2, hCB2R; assay: βarrestin1 recruitment, BRET2, HEK293A hCB2R-GFP2; assay type: cell-based; design: expressed in transfected cells; host or cells: HEK293A cells, transient (Lipofectamine 2000); conditions: indomethacin alone
Protocol: as §3

hCB2R [12] = molecular target: T2, hCB2R; assay: PLCβ3 phosphorylation, in-cell western, HEK293A hCB2R-GFP2; assay type: cell-based; design: expressed in transfected cells; host or cells: HEK293A cells; HEK-CRE reporter cells for the cAMP luciferase assay; conditions: indomethacin alone
Protocol: as §2

hCB1R [13] = assay: Bias analysis by operational model, ΔΔLogR (cAMP–βarrestin2), CHO cells; assay type: cell-based, human; conditions: reference agonist CP55940
Protocol: Concentration-response curves (CRC) were fit using non-linear regression with variable slope (four parameters) and used to calculate EC50, Emin, and Emax (GraphPad, Prism, v. 8.0). […] Statistical analyses were conducted by Student’s one

hCB1R [14] = molecular target: T1, hCB1R; assay type: cell-based; conditions: indomethacin alone; remark: listed apart in the source
Protocol: as §4

hCB2R [15] = molecular target: T2, hCB2R; assay: [35S]GTPγS binding assay, CHO cell membranes; assay type: biochemical; design: expressed in transfected cells; HEK-CRE reporter cells for the cAMP luciferase assay; conditions: data not shown
Protocol: (§5) Human CB1R and CB2R CHO cell membranes (25 μg protein) were preincubated for 30 min at 30°C with adenosine deaminase (0.5 IU/ml). […] Binding was initiated by the addition of [^35S]GTPγS. Non-specific binding was measured in the presence of 30 μM GTPγS. The reaction was terminated by rapid vacuum filtration (50 mM Tris–HCl; 50 mM Tris–Base; 0.1% BSA) using a 24-well sampling manifold (cell harvester; Brandel, Gaithersburg, MD, United States) and GF/B filters (Whatman, Maidstone, United Kingdom) that had been soaked in buffer (50 mM Tris–HCl; 50 mM Tris–Base; 0.1% BSA) for at least 24 h. Each reaction tube was washed six times with a 1.2-mL aliquot of ice-cold wash buffer. The filters were oven-dried for at least 60 min and then placed in 3 mL of scintillation fluid (Ultima Gold XR, PerkinElmer, Cambridge, United Kingdom). Radioactivity was quantified by liquid scintillation spectrometry.

hCB1R [16] = molecular target: T1, hCB1R; assay: [35S]GTPγS binding assay, CHO cell membranes; assay type: biochemical; conditions: 1 μM indomethacin in the presence of 1 nM and 10 μM AEA
Protocol: as §5

hCB2R [17] = molecular target: T2, hCB2R; assay: ERK1/2 phosphorylation, in-cell western, HEK293A hCB2R-GFP2; assay type: cell-based; design: expressed in transfected cells; host or cells: HEK293A cells; HEK-CRE reporter cells for the cAMP luciferase assay; conditions: indomethacin alone
Protocol: as §2

hCB1R [18] = molecular target: T1, hCB1R; assay: [3H]CP55940 radioligand binding, CHO cell membranes; conditions: 0.7 nM [3H]CP55940; indomethacin between 10 nM and 10 μM, bell-shaped, greatest at 10 and 100 nM
Protocol: Binding was initiated by the addition of transfected human CB1R or CB2R CHO cell membranes (50 μg protein per well). All assays were performed at 37°C for 60 min before termination by the addition of ice-cold Tris binding buffer, followed by vacuum filtration using a 24-well sampling manifold (Brandel Cell Harvester; Brandel Inc., Gaithersburg, MD, United States) and Brandel GF/B filters that had been soaked in wash buffer at 4°C for at least 24 h. Each reaction well was washed six times with a 1.2 mL aliquot of Tris binding buffer. The filters were oven-dried for 60 min and then placed in 3 ml of scintillation fluid (Ultima Gold XR, PerkinElmer, Seer Green, Buckinghamshire, United Kingdom). Radioactivity was quantified by liquid scintillation spectrometry.

[19] = design: method as in Remmel et al., 2004; conditions: ref Remmel et al., 2004; cited from earlier work

T2 sequence (P34972 whole entry): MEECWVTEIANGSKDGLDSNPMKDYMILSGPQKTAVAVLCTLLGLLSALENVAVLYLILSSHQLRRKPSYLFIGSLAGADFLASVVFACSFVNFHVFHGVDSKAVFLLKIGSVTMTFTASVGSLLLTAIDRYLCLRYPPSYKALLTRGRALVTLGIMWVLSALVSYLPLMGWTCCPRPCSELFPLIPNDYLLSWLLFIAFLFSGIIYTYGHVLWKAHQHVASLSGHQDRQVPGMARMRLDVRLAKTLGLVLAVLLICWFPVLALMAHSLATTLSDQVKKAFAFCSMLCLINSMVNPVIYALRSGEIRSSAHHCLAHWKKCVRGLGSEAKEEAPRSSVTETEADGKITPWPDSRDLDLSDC
T1 sequence (P21554 whole entry): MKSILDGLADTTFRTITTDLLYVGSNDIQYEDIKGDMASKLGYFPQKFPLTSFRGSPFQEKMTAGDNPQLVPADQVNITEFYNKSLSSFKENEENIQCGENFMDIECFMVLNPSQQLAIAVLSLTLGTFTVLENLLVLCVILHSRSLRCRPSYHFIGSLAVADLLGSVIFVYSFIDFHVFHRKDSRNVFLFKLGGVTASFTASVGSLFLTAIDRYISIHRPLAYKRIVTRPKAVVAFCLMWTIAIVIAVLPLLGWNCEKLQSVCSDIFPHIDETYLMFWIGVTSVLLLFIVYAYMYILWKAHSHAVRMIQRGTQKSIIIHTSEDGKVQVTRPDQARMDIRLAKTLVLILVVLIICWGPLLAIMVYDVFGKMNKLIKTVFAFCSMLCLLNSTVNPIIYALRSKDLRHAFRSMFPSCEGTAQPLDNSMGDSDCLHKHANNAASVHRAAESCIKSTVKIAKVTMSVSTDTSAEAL

For C=C(C)[C@@H]1CCC(C)=C[C@H]1c1c(O)cc(CCCCC)cc1O [CBD, cannabidiol], the “concentrations that reduce CP55940 binding” value (CB1R [1]) is given as > 1 µM.

In the case of CCCCCCC(C)(C)c1ccc([C@@H]2C[C@H](O)CC[C@H]2CCCO)c(O)c1 [CP55940, (-)-cis-3-[2-Hydroxy-4-(1,1-dimethylheptyl)phenyl]-trans-4-(3-hydroxypropyl)cyclohexanol], the catalepsy (C57BL/6J mice [2]) is reported as “increased”, the “locomotion (distance traveled in the open field) compared to vehicle” value (C57BL/6J mice [3]; CP55940 0.1 mg/kg i.p., 1 and 4 h) is reported as “reduced” and the “tail flick latency compared to vehicle” value (C57BL/6J mice [4]) is reported as “increased”. The “body temperature compared to vehicle” value (C57BL/6J mice [5]) was “reduced”.

For CCCCC[C@H](O)/C=C/C=C\C=C\C=C\[C@@H](O)[C@@H](O)CCCC(=O)O [Lipoxin A4, lipoxin A4], the potency in vitro (CB1R [6]) is listed as “high micromolar”.

With COc1ccc2c(c1)c(CC(=O)O)c(C)n2C(=O)c1ccc(Cl)cc1 [Indomethacin, indomethacin] the “rate of dissociation of [3H]CP55940 compared to vehicle” value (hCB1R [7]; 1 μM indomethacin) was “did not change”, the “t1/2 (min) (95% CI) of [3H]CP55940 dissociation” value (hCB1R [7]; +1 μM indomethacin, 24°C, dissociation started with 1 μM unlabeled CP55940) was 4.67 (3.17–8.80) min and the “hCB1R-dependent ERK1/2 phosphorylation” value (hCB1R [8]) was “did not alter”. The “hCB1R-dependent PLCβ3 phosphorylation” value (hCB1R [8]) was “did not alter”, the “hCB1R-dependent βarrestin1 recruitment” value (hCB1R [9]) was “did not alter” and the “AEA-dependent hypolocomotion, anti-nociception, hypothermia, and immobility” value (ICR mice) was “enhanced”. The “catalepsy time compared to CP55940 alone” value (C57BL/6J mice [2]; 2 and 4 mg/kg indomethacin with CP55940 0.1 mg/kg i.p., 1 h) was “significantly increased”, the catalepsy (C57BL/6J mice [2]) was “not” and the “locomotion compared to CP55940 or indomethacin alone” value (C57BL/6J mice [3]; CP55940 0.1 mg/kg + indomethacin 4 mg/kg i.p., 4 h) was “further reduced”. The “hCB2R-dependent cAMP inhibition” value (hCB2R [10]) was “did not alter”, the “hCB2R-dependent βarrestin1 recruitment” value (hCB2R [11]) was “did not alter” and the “hCB2R-dependent PLCβ3 phosphorylation” value (hCB2R [12]) was “did not alter”. For the same compound, the “tail flick latency compared to CP55940 or indomethacin alone” value (C57BL/6J mice [4]; CP55940 0.1 mg/kg + indomethacin 4 mg/kg i.p., 1 h) was “increased”, the “tail flick latency compared to vehicle” value (C57BL/6J mice [4]) was “increased” and the “bias between cAMP inhibition and βarrestin2 recruitment (ΔΔLogR)” value (hCB1R [13]; indomethacin in the presence of AEA) was “selectively enhance inhibition of cAMP”. For the same compound, the “bias between cAMP inhibition and βarrestin2 recruitment (ΔΔLogR)” value (hCB1R [13]; indomethacin in the presence of CP55940) was “did not display bias”, the “hCB1R-dependent cAMP levels” value (hCB1R [14]) was “did not alter” and the “[35S]GTPγS binding to hCB2R” value (hCB2R [15]) was “did not effect”. The “[35S]GTPγS binding to hCB1R” value (hCB1R [16]) was “enhanced”, the “hCB2R-dependent ERK1/2 phosphorylation” value (hCB2R [17]) was “did not alter” and the “[3H]CP55940 binding to hCB1R” value (hCB1R [18]) was “enhanced”. The “body temperature compared to CP55940 or indomethacin alone” value (C57BL/6J mice [5]; CP55940 0.1 mg/kg + indomethacin 4 mg/kg i.p.) was “further reduced”, the “body temperature compared to vehicle” value (C57BL/6J mice [5]) was “reduced” and the t1/2 in mouse [19] was 51 min.
